Assay [1] deals with T1, recombinant human leukotriene A4 hydrolase enzyme (Homo sapiens, UniProt P09960).
T1 construct: purchased Cayman Chemical 10007817
T1 sequence (P09960 1-611): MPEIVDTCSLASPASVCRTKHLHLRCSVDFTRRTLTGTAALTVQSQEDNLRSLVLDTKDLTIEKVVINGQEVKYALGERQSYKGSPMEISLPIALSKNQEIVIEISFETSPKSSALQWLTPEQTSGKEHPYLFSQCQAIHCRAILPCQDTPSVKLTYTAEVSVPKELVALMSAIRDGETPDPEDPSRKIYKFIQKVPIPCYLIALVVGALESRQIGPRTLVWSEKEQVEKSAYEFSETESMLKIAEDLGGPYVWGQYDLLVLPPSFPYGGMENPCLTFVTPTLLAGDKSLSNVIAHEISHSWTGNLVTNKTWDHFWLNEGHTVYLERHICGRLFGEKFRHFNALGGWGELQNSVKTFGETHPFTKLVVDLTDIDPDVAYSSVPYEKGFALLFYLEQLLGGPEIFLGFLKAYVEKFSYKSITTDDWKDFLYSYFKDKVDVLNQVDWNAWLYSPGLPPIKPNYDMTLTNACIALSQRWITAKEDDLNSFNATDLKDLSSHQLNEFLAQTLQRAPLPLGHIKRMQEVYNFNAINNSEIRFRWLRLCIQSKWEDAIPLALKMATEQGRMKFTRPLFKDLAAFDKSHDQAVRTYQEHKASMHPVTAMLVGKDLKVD
The assay can be described thus: Amino-peptidase assay, alanine-4-nitroanalide. It is filed as biochemical. As to conditions: negative values = augmented peptidase activity, read-out: % Inhibition aminopeptidase-Alanine-4-nitroanalide activity of LTA4H (3 μM). As for the experimental part: A series of compound concentrations were pre-incubated in the absence of light with 0.5 μg of recombinant human leukotriene A4 hydrolase enzyme (Cayman Chemical 10007817) in 50 μL assay buffer (50 mM Tris-HCl, 100 mM KCl). The reaction was stimulated by adding 50 μL 6 mM alanine-4-nitroanilide (Sigma Aldrich A9325) in assay buffer. The amount of amino-peptidase activity was measured by determining the change in absorbance at 405 nm due to 4-nitroanaline production and comparing the rate of change to a reference standard (Sigma Aldrich 185310). Amino-peptidase activity was compared to control samples and the level of inhibition was calculated. Compounds that augment peptidase activity are represented by negative values.

The subject of assay [2] is LTC4 production in MC/9 cells. The assay can be described thus: MC/9 HPLC assay, inhibition of LTC4 production. It is filed as cell-based. As to conditions: Mus musculus; for inhibition at 1 µM: MC9, Table 2 column 3, no concentration in head (1 μM according to b732), read-out: % Inhibition LTC4; for inhibition at 3 µM: MC9, 3 μM, A23187 stimulated. How it is done: (§1) Cultured MC/9 cells (3×10^6 cells) in 1 mL HBSS were pre-incubated with a series of concentrations of compound solubilized in DMSO for 30 minutes. Production of leukotrienes were stimulated with the addition of 1 μM calcium ionophore (A23187), diluted from a 4 mM DMSO stock in HBSS, and incubated at room temperature for 20 minutes. The reaction was stopped with the addition of 500 μL of methanol containing 20 ng/mL prostaglandin B2 as an internal standard. Samples were collected and stored at −20° C. at least 2 hr or overnight before centrifuged at 13,000 rpm for 15 minutes and loaded onto C18 SEP-PAK columns (Canadian Lifesciences IS12000) for solid phase extraction. The leukotrienes were analyzed by HPLC using an ACE C18 column (4.5 mm×150 mm, 5 m) eluted with acetonitrile/methanol/water mixture with H3PO4, pH 3.5 (37:26:37) with a flow rate of 1.8 mL/min. The amount of LTB4 (Cayman Chemical, 20110) and LTC4 (Cayman Chemical, 20210) were calculated based on reference standards and the level of inhibition of LTB4 production induced by the test compounds was calculated relative to control samples. The results are provided in Table 2, where Compound No. refers to the compounds identified in Table 1.

The subject of assay [3] is LTB4 production in MC/9 cells. In words: MC/9 HPLC assay, inhibition of LTB4 production. The class given is cell-based. As to conditions: Mus musculus, MC9, Table 2 column 4, no concentration in head (1 μM according to b732), read-out: % Inhibition LTB4. As for the experimental part: as §1
For assay [4], the system named is LTB4 production in porcine or human whole blood. In words: Whole blood HPLC assay, inhibition of LTB4 production. It is filed as cell-based. To be noted: 5 point curve, porcine or human whole blood (not specified). As for the experimental part: Porcine or human whole blood (1 mL) was pre-incubated with a series of concentrations of compound solubilized in DMSO for 30 minutes. Production of leukotrienes were stimulated with the addition of 20 μM calcium ionophore (A23187), diluted from a 4 mM DMSO stock in HBSS, and incubated at room temperature for 20 minutes. In porcine blood 20 μM arachidonic acid was added in addition to the calcium ionophore. The blood was centrifuged at 2,000 rpm for 15 minutes, and the plasma fraction removed for further processing. Plasma samples were diluted with 500 μL acidified water (HCl pH 3.0) and loaded onto C18 SEP-PAK columns (Canadian Lifesciences IS12000) for solid phase extraction. The leukotrienes were analyzed by HPLC using an ACE C18 column (4.5 mm×150 mm, 5 m) eluted with acetonitrile/methanol/water mixture with H3PO4, pH 3.5 (37:26:37) with a flow rate of 1.8 mL/min. The amount of LTB4 (Cayman Chemical, 20110) was calculated based on reference standards and the level of inhibition of LTB4 production induced by the test compounds was calculated relative to control samples. The results provided in Table 3 are IC50 values calculated based on a 5 point curve, where Compound No. refers to the compounds identified in Table 1.

pIC50: −log10 of the molar value.

The inhibition is the percentage by which the read-out fell short of the control. In general, pIC50 refers to the IC50 on a negative log10 scale, so that one unit is a factor of ten. Read a high pIC50 as a small IC50.

Regarding `CCC(=O)CCc1ccc(Oc2nc3ccccc3o2)c(OC)c1` [Compound 102, 1-[4-(1,3-benzoxazol-2-yloxy)-3-methoxyphenyl]pentan-3-one], the inhibition at 3 µM in assay [1] fell in the range of 0 to 50%. In addition, the inhibition at 1 µM is 10 to 30% in assay [2] and over 90% in assay [3].
As to `CCC(O)(CCc1ccc(Oc2nc3ccccc3n2C)c(OC)c1)C(F)(F)F` (stereo not shown) [Compound 105, 1-[4-(1-methyl-1H-benzimidazol-2-yloxy)-3-methoxyphenyl]-3-(trifluoromethyl)pentan-3-ol], the inhibition at 3 µM in assay [1] worked out at 75%. Besides, in assay [2], the inhibition at 3 µM lay within 70 to 90% and the inhibition at 1 µM lay in the range of 30 to 50%.
For the compound `CCC(O)(CCc1ccc(Oc2nc3ccc(S(C)(=O)=O)cc3s2)c(OC)c1)C(F)(F)F` (stereo not shown) [Compound 106, 1-{3-methoxy-4-[(6-methylsulfonyl-1,3-benzothiazol-2-yl)oxy]phenyl}-3-(trifluoromethyl)pentan-3-ol], in assay [2], the inhibition at 3 µM lay within 30 to 50% and the inhibition at 1 µM is 10 to 30%. This compound also showed a negative-log IC50 (pIC50) in assay [4] of under 5.00. For the same compound, the inhibition at 1 µM in assay [3] fell in the range of 10 to 30%.
On to `CCC(O)(CCc1ccc(Oc2nc3c(F)cc(F)cc3s2)c(OC)c1)C(F)(F)F` (stereo not shown) [Compound 107, 1-{4-[(4,6-difluoro-1,3-benzothiazol-2-yl)oxy]-3-methoxyphenyl}-3-(trifluoromethyl)pentan-3-ol], for which, in assay [2], the inhibition at 3 µM was over 90% and the inhibition at 1 µM lay in the range of 70 to 90%. Moreover, the negative-log IC50 (pIC50) in assay [4] was under 5.00. Also, in assay [3], the inhibition at 1 µM is over 90%.
`CCC(O)(CCc1ccc(Oc2nc3ccc(OC)cc3s2)c(OC)c1)C(F)(F)F` (stereo not shown) [Compound 109, 1-{4-[(6-methoxy-1,3-benzothiazol-2-yl)oxy]-3-methoxyphenyl}-3-(trifluoromethyl)pentan-3-ol]: in assay [1], the inhibition at 3 µM is 0 to 50%. Besides, the figures for the inhibition at 1 µM in assay [2] and in assay [3] were 50 to 70% and 70 to 90%, respectively.
The corresponding values for `CCOc1cc(CCC(O)(CC)C(F)(F)F)ccc1Oc1nc2ccccc2s1` (stereo not shown) [Compound 121, 1-[4-(1,3-benzothiazol-2-yloxy)-3-ethoxyphenyl]-3-(trifluoromethyl)pentan-3-ol] are 0 to 50%, 50 to 70% and 50 to 70%.
`COc1cc(CCC(C)(O)c2ccccc2)ccc1Oc1nc2ccccc2s1` (stereo not shown) [Compound 123, 4-[4-(1,3-benzothiazol-2-yloxy)-3-methoxyphenyl]-2-(phenyl)butan-2-ol]: in assay [1], the inhibition at 3 µM is 25 to 50%. The inhibition at 1 µM lay within 10 to 30% in assay [2] and 50 to 70% in assay [3].
`COc1cc(CCC(C)(O)c2ccccc2)ccc1Oc1nc2ccccc2o1` (stereo not shown) [Compound 128, 4-[4-(1,3-benzoxazol-2-yloxy)-3-methoxyphenyl]-2-phenylbutan-2-ol]: the inhibition at 3 µM in assay [1] is under 25%; in assay [2] it was under 10%. Also, the inhibition at 1 µM in assay [2] and in assay [3] was under 10% in each case.
In assay [2], `COc1cc(C(O)C(F)(F)F)ccc1Oc1nc2c(SC)cccc2s1` (stereo not shown) [Compound 139, 2,2,2-trifluoro-1-(3-methoxy-4-{[4-(methylsulfanyl)-1,3-benzothiazol-2-yl]oxy}phenyl)ethanol] displayed an inhibition at 3 µM of over 90%. In addition, the negative-log IC50 (pIC50) in assay [4] was 5.00 to 6.00.
For the compound `CCC(O)(CCc1ccc(Oc2nc3ccccc3s2)c(F)c1)C(F)(F)F` (stereo not shown) [Compound 154, 1-[4-(1,3-benzothiazol-2-yloxy)-3-fluorophenyl]-3-(trifluoromethyl)pentan-3-ol], the inhibition at 3 µM in assay [1] is over 75%; in assay [2] it was under 10%. In addition, the inhibition at 1 µM in assay [2] was in the range of 30 to 50%; in assay [3] it was 50 to 70%.
Compound `CC(O)c1ccc(Oc2nc3ccccc3s2)cc1` (stereo not shown) [Compound 160, 1-[4-(1,3-benzothiazol-2-yloxy)phenyl]ethanol] came in with an inhibition at 3 µM in assay [2] of under 10%. Moreover, the negative-log IC50 (pIC50) in assay [4] is under 5.00.
On the same counts, the results for `CC(O)(c1ccc(Oc2nc3ccccc3s2)cc1)C(F)(F)F` (stereo not shown) [Compound 163, 2-[4-(1,3-benzothiazol-2-yloxy)phenyl]-1,1,1-trifluoropropan-2-ol] are 10 to 30% and under 5.00.
Regarding `O=C(O)C1CCCN1Cc1ccc(Oc2nc3ccccc3s2)cc1` (stereo not shown) [Compound 165, 1-[4-(1,3-benzothiazol-2-yloxy)benzyl]pyrrolidine-2-carboxylic acid], the inhibition at 3 µM in assay [1] was 50 to 75%; in assay [2], under 10%.
As for `COc1cc(C(C)(O)C(F)(F)F)ccc1Oc1nc2ccccc2s1` (stereo not shown) [Compound 173, 2-[4-(1,3-benzothiazol-2-yloxy)-3-methoxyphenyl]-1,1,1-trifluoropropan-2-ol], the inhibition at 3 µM in assay [1] fell in the range of 0 to 50%; in assay [2], 30 to 50%.
On the same counts, the results for `CSc1cccc2sc(Oc3ccc(C(C)O)cc3)nc12` (stereo not shown) [Compound 176, 1-(4-{[4-(methylsulfanyl)-1,3-benzothiazol-2-yl]oxy}phenyl)ethanol] are under 25% and under 10%.
Consider `CC(O)c1ccc(Oc2nc3c(F)cc(F)cc3s2)cc1` (stereo not shown) [Compound 180, 1-{4-[(4,6-difluoro-1,3-benzothiazol-2-yl)oxy]phenyl}ethanol], for which the results for the inhibition at 3 µM in assay [1] and in assay [2] were 50 to 75% and under 10%, respectively.
On the same counts, the results for `COc1cc(Oc2nc3ccccc3s2)ccc1C(O)C(F)(F)F` (stereo not shown) [Compound 182, 1-{4-[(1,3-benzothiazol-2-yl}oxy]-2-methoxyphenyl}-2,2,2-trifluoroethan-1-ol] are under 25% and 10 to 30%.
With `CCC(O)(CCc1ccc(OCc2ccc3ccccc3n2)cc1)C(F)(F)F` (stereo not shown) [Compound 185, 1-[4-(quinolin-2-ylmethoxy)-phenyl]-3-(trifluoromethyl)-pentan-3-ol], in assay [2], the inhibition at 3 µM fell in the range of 70 to 90%. The compound further had a pIC50 in assay [4] of 6.00 to 7.00.
The corresponding values for `CC(O)(c1ccc(OCc2ccc3ccccc3n2)cc1)C(F)(F)F` (stereo not shown) [Compound 197, 1,1,1-trifluoro-2-[4-(quinolin-2-ylmethoxy)phenyl]propan-2-ol] are over 90% and 6.00 to 7.00.
The corresponding values for `CCC(O)(CCc1ccc(OCc2ccc3ccccc3n2)c(OC)c1)C(F)(F)F` (stereo not shown) [Compound 198] are 30 to 50% and 6.00 to 7.00.
On the same counts, the results for `COc1cc(C(C)(O)C(F)(F)F)ccc1OCc1ccc2ccccc2n1` (stereo not shown) [Compound 199, 1,1,1-trifluoro-2-[3-methoxy-4-(quinolin-2-ylmethoxy)phenyl]propan-2-ol] are 30 to 50% and under 5.00.

(Values after US12686668B2, “Leukotriene synthesis inhibitors” (Naegis Pharmaceuticals Inc., priority 2019, dated 2026).)
